Test results as given in the supplement of paper PMC12463676, “Small-molecule dissolution of stress granules by redox modulation benefits ALS models” (Nature Chemical Biology, 2025).

Columns and labels:
lipoamide = compound: NC(=O)CCCCC1CCSS1 [lipoamide]; assay: thermal stability z-score vs DMSO; higher = more thermally stabilized by treatment; details: HeLa, lipoamide concentration 100 µM
Procedure: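 Cellular thermal proteome profiling in HeLa cells. Cells were treated with 100 µM lipoamide for 1 h, with or without 1 mM arsenate for a further 1 h, then heated to ten temperatures (37-66.3 °C), and soluble protein was quantified by TMT mass spectrometry relative to 0.1% DMSO controls. The thermal stability score (sum of log2 fold changes minus the abundance score) was transformed to a z-score; mean of n = 3 experiments.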

potassium arsenate = compound: O=[As]([O-])(O)O.[K+] [potassium arsenate]; assay: as above; details: HeLa; arsenate concentration 1 mM
Procedure: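 Cellular thermal proteome profiling in HeLa cells treated with 1 mM arsenate for 1 h (DMSO pretreatment), heated to ten temperatures (37-66.3 °C). Soluble protein was quantified by TMT mass spectrometry relative to DMSO controls; the thermal stability score was transformed to a z-score; mean of n = 3 experiments.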

[1] = arsenate co-treatment: 1 mM arsenate 1 h
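Note: each temperature applied for 3 min, abundance score taken as mean log2 fold change at the two lowest temperatures, z-score obtained by mean subtraction and division by SD.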

UniProt Q96B23, sequence (Q96B23 whole entry): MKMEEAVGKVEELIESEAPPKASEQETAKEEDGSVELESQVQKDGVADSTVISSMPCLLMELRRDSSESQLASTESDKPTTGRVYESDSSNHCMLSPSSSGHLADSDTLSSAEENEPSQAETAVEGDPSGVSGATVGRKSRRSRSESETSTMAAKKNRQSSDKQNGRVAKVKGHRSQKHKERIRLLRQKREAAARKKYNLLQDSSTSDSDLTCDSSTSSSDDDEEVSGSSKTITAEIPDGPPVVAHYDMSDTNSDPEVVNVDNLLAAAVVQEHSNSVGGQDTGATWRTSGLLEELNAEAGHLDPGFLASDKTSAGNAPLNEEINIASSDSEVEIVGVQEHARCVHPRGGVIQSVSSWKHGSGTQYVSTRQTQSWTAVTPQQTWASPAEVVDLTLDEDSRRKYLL
UniProt O96019, sequence (O96019 whole entry): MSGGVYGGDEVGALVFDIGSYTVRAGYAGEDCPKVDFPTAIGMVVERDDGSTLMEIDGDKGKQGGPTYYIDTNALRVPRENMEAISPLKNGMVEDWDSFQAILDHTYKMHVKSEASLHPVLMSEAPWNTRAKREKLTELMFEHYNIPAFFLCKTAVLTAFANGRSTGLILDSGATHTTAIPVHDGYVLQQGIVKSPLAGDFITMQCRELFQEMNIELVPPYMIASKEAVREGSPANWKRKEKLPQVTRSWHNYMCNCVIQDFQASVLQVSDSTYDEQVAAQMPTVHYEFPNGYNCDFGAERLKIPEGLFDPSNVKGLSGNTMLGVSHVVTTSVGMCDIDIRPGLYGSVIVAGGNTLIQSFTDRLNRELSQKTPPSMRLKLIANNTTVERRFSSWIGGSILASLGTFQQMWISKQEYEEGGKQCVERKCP
UniProt O95861, sequence (O95861 whole entry): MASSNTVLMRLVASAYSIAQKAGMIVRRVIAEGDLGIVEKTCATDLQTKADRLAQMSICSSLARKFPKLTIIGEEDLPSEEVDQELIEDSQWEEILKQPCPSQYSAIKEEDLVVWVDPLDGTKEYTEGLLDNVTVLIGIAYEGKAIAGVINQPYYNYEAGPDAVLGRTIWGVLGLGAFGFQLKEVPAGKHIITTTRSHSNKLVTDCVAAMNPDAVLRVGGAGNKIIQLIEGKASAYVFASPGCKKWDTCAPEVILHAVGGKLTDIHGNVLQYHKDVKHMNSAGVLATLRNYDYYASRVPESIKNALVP
UniProt Q9Y2U8, sequence (Q9Y2U8 whole entry): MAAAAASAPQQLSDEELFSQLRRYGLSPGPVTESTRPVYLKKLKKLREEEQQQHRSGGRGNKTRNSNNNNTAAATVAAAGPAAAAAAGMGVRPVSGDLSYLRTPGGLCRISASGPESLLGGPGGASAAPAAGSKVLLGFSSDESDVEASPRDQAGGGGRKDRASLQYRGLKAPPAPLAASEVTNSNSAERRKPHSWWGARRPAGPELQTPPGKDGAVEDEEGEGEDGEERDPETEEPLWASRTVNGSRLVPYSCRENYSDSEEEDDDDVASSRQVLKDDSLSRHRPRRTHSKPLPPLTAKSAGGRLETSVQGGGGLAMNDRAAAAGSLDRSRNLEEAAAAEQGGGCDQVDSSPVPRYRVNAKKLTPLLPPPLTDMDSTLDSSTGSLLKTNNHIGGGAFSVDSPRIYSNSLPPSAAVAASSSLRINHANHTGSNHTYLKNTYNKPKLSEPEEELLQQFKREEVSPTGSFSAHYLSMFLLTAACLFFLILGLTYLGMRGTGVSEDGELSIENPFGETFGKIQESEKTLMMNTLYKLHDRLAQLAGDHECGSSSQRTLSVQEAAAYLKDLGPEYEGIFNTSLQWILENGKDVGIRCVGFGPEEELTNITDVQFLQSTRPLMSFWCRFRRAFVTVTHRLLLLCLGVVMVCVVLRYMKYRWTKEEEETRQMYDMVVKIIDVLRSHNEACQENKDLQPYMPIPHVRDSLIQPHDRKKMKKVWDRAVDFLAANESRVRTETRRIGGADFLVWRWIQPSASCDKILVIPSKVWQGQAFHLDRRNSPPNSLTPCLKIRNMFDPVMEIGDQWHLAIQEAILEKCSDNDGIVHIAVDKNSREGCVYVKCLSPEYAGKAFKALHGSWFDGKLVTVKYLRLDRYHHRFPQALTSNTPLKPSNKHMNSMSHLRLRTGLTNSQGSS
UniProt Q96NW4, sequence (Q96NW4 whole entry): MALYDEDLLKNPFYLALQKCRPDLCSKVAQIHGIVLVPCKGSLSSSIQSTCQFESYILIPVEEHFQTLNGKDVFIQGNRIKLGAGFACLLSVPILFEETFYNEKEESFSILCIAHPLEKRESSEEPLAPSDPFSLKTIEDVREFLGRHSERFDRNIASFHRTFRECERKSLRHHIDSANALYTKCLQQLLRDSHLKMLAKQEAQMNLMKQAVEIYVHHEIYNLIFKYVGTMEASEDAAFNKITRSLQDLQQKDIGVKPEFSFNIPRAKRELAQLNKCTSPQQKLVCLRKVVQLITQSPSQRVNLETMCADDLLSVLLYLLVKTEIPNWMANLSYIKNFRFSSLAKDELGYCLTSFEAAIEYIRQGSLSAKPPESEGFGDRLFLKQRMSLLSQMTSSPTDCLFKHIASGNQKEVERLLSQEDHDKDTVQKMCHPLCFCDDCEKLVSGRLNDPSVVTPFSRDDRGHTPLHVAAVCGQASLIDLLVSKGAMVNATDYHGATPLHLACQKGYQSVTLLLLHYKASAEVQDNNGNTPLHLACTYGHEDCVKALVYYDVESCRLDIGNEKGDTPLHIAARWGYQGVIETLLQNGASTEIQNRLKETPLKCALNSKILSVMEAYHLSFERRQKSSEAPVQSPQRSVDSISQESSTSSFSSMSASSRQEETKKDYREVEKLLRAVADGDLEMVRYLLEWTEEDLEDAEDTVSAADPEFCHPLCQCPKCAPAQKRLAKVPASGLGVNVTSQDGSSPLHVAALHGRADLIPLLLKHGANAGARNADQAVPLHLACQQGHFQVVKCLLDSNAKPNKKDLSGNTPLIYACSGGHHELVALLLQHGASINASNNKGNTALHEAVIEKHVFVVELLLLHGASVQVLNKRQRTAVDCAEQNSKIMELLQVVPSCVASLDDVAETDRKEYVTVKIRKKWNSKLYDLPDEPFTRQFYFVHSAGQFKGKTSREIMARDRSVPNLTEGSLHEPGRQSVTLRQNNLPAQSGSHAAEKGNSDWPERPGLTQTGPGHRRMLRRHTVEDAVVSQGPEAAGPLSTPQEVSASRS
UniProt Q8TBC4, sequence (Q8TBC4 whole entry): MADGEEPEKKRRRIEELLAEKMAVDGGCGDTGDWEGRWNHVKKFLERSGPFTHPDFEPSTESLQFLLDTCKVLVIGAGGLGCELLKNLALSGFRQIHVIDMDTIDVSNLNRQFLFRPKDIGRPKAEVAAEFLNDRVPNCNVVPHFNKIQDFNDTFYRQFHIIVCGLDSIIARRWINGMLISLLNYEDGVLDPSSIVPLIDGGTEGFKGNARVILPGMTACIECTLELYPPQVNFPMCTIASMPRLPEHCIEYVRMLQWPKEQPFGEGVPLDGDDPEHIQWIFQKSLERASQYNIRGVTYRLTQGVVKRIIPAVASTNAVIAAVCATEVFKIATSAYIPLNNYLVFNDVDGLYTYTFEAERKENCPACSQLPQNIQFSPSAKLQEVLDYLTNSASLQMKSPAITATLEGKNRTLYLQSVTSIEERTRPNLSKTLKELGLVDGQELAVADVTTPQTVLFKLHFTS
UniProt Q8N5G2, sequence (Q8N5G2 whole entry): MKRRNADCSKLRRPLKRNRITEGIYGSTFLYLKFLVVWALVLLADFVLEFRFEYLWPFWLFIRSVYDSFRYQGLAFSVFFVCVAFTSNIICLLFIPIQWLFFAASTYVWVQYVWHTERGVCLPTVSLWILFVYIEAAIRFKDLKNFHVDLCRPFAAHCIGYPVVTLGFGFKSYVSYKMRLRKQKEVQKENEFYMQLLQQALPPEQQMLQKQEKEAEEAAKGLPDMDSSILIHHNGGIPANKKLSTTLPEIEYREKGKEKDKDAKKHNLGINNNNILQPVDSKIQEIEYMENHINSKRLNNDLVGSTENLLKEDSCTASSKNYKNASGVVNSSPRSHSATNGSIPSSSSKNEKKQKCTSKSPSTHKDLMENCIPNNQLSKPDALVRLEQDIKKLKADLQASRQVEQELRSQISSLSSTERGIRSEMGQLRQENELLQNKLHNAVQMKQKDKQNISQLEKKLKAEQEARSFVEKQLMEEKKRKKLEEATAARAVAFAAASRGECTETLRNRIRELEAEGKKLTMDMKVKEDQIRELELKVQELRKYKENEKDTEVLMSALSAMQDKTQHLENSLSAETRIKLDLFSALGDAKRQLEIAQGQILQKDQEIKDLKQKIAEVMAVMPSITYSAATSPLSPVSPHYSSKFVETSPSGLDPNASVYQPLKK
UniProt Q969Y2, sequence (Q969Y2 whole entry): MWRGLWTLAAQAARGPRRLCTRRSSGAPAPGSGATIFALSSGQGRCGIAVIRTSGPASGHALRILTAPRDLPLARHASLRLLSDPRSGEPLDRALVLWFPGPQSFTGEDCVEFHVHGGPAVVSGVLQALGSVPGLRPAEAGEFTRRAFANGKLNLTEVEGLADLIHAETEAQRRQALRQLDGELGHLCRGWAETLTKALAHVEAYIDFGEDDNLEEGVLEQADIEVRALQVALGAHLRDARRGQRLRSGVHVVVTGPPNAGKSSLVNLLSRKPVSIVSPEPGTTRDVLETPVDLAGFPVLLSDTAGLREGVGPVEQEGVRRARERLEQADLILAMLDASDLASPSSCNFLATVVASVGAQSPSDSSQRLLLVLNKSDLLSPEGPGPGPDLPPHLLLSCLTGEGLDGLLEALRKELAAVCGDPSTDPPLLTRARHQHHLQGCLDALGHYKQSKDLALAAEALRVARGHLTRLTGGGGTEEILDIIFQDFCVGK
UniProt Q9BX68, sequence (Q9BX68 whole entry): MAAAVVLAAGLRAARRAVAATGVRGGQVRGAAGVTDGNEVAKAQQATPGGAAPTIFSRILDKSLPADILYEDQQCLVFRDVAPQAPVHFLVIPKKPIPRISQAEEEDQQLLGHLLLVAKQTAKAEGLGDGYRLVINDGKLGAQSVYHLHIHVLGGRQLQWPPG
UniProt P63165, sequence (P63165 whole entry): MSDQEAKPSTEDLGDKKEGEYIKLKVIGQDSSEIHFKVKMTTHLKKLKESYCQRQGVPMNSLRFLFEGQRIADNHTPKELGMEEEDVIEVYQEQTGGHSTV

Target	thermal stability z-score (lipoamide; [1])	thermal stability z-score (lipoamide; arsenate co-treatment: none)	thermal stability z-score (potassium arsenate)
RINT1 (UniProt Q6NUQ1)	-0.699	-0.111	0.354
HINT2 (UniProt Q9BX68)	-0.459	-0.337	-1.98
SAFB2 (UniProt Q14151)	1.41	0.112	-0.545
ANKRD44 (UniProt Q8N8A2)	-0.00602	-0.323	-0.0202
EPS15 (UniProt P42566)	-0.339	-0.0217	-0.469
ACTL6A (UniProt O96019)	2.1	0.96	-0.336
POLR3B (UniProt Q9NW08)	0.417	0.0689	0.309
HIBADH (UniProt P31937)	-1.36	-0.391	-1.36
HAUS4 (UniProt Q9H6D7)	-0.0376	0.0952	0.0479
KIAA1143 (UniProt Q96AT1)	-0.286	0.26	-0.385
UBA3 (UniProt Q8TBC4)	-0.466	-0.282	-0.0439
TCEA1 (UniProt P23193)	0.138	0.297	-0.117
CHURC1 (UniProt Q8WUH1)	-0.539	-0.988	-0.122
RNF139 (UniProt Q8WU17)	-1.16	-0.12	0.947
NCKAP1 (UniProt Q9Y2A7)	0.0716	0.602	-0.938
CHMP3 (UniProt Q9Y3E7)	0.271	0.481	0.291
CEP170B (UniProt Q9Y4F5)	-0.0863	-0.0862	-0.201
UBAP2L (UniProt Q14157)	0.549	0.413	-0.116
PDCD5 (UniProt O14737)	1.01	0.727	0.417
UPF1 (UniProt Q92900)	0.222	-0.246	0.172
SNX1 (UniProt Q13596)	0.0174	-0.29	0.327
STX7 (UniProt O15400)	-0.0553	0.417	0.507
SPAST (UniProt Q9UBP0)	-0.179	0.818	0.604
DNAJB11 (UniProt Q9UBS4)	-2.65	-2.51	0.319

Target	thermal stability z-score (lipoamide; [1])	thermal stability z-score (lipoamide; arsenate co-treatment: none)	thermal stability z-score (potassium arsenate)
SPIN1 (UniProt Q9Y657)	0.0956	0.212	-0.0902
GTPBP3 (UniProt Q969Y2)	0.357	0.272	0.354
ANKRD27 (UniProt Q96NW4)	-0.025	-0.0854	-0.276
SLC25A35 (UniProt Q3KQZ1)	0.135	-0.276	0.172
DERA (UniProt Q9Y315)	0.0875	-0.0376	-0.0631
RAB23 (UniProt Q9ULC3)	0.712	0.437	-0.626
ACO1 (UniProt P21399)	0.259	-0.252	-0.945
SRP19 (UniProt P09132)	-0.296	-0.485	0.033
SYNCRIP (UniProt O60506)	0.0582	0.179	-0.00709
SAMD4B (UniProt Q5PRF9)	0.14	0.116	-0.143
PSMC3 (UniProt P17980)	-0.262	-0.0444	-0.44
GLMP (UniProt Q8WWB7)	2.79	3.71	3.11
MRPL54 (UniProt Q6P161)	-0.648	0.074	0.025
RPP25L (UniProt Q8N5L8)	0.36	0.117	0.245
NFS1 (UniProt Q9Y697)	-0.356	-0.438	-1.15
PLEC (UniProt Q15149)	2.76	2.01	-3.9
EMC7 (UniProt Q9NPA0)	-0.402	-0.134	-0.101
METAP2 (UniProt P50579)	0.0427	0.326	0.409
PSME1 (UniProt Q06323)	-0.372	-0.217	0.405
C18ORF25 (UniProt Q96B23)	-0.688	-0.189	0.363
FTSJ1 (UniProt Q9UET6)	-0.787	-0.171	-0.793
NUS1 (UniProt Q96E22)	0.421	0.252	0.015
COA6 (UniProt Q5JTJ3)	1.7	1.85	0.756
PHF6 (UniProt Q8IWS0)	-0.33	-0.552	-3.52

Target	thermal stability z-score (lipoamide; [1])	thermal stability z-score (lipoamide; arsenate co-treatment: none)	thermal stability z-score (potassium arsenate)
SUMO1 (UniProt P63165)	-0.294	-0.0784	1.09
TMEM57 (UniProt Q8N5G2)	0.13	-0.0957	-0.249
LEMD3 (UniProt Q9Y2U8)	0.161	0.209	-0.685
BLOC1S2 (UniProt Q6QNY1)	2.75	1.1	1.61
STXBP4 (UniProt Q6ZWJ1)	-0.119	0.0111	-0.111
SH2D3A (UniProt Q9BRG2)	0.139	-0.263	0.0147
YARS2 (UniProt Q9Y2Z4)	-0.741	-0.156	0.423
CFAP20 (UniProt Q9Y6A4)	0.686	-0.433	1.07
BPNT1 (UniProt O95861)	-0.0659	-0.197	-1.66
GPBP1 (UniProt Q86WP2)	-0.514	-0.441	-0.111
SSBP1 (UniProt Q04837)	1.55	0.76	1.94
TEX264 (UniProt Q9Y6I9)	-0.151	-0.929	-0.568
SURF1 (UniProt Q15526)	-1.27	-0.521	0.165
SRRT (UniProt Q9BXP5)	0.06	0.206	-0.751
SULT1A4|SULT1A3	-0.787	0.186	1.16
FGFR1OP (UniProt O95684)	0.163	-0.0584	1.33
FAM213A (UniProt Q9BRX8)	-0.192	-0.476	-0.29
GPAM (UniProt Q9HCL2)	1.02	-0.15	-0.448
MIA3 (UniProt Q5JRA6)	-3.32	-2.72	1.39
SREK1 (UniProt Q8WXA9)	0.0164	0.0581	0.00931
GCN1 (UniProt Q92616)	-0.244	0.292	0.522
TMOD3 (UniProt Q9NYL9)	-0.494	0.384	0.732
NFKB1 (UniProt P19838)	0.0975	0.14	-0.274
